Assays:
[1] = tested on: HaCaT cells (normal keratinocytes); assay: Lactate dehydrogenase (LDH) release assay, HaCaT; format: cell-based, human; settings: 72 h
Procedure: (§1) Lactate dehydrogenase assay (LDH) as a marker of cell death was evaluated for synthesized ethylthioureas 1–7. The compounds were tested at concentrations of 10, 50, and 100 µM. At the lowest dose, no activity was observed.
(§2) Description related to conducted biological studies including cell culture, suitable conditions, and methodology was presented in our previous paper.
(§3) Figure 6 LDH release as a marker of a cell death in the HaCaT, HTB-140, CaCo-2, A549 cells, treated for 72 h with various concentrations of derivatives 3–6 (100 µM for compounds 3–5, 100 and 50 µM for 6). Data are expressed as the mean ± SD from three independent experiments, performed in triplicate. *** p ≤ 0.001, ** p ≤ 0.01, as compared to the control.

[2] = tested on: CaCo-2 cells (colorectal adenocarcinoma); assay: MTT cytotoxicity assay, CaCo-2; format: cell-based, human; settings: for IC50: Homo sapiens, CaCo-2, MTT, mean ± SD; for SI (Selectivity Index): IC50 for normal cell line (HaCaT)/IC50 CaCo-2
Source text: (§4) All derivatives of bis(2-aminoethyl)amine were screened for their in vitro cytotoxic activity against a panel of human cancer cell lines, namely colorectal adenocarcinoma (CaCo-2), epithelial lung carcinoma (A549), and melanoma (HTB-140), which is contrary to normal (HaCaT) cell lines, by using the MTT method.
as §2

[3] = tested on: A549 cells (epithelial lung carcinoma); assay: MTT cytotoxicity assay, A549; format: cell-based, human; settings: for IC50: A549, MTT, mean ± SD; for SI (Selectivity Index): IC50 for normal cell line (HaCaT)/IC50 A549
Source text: as §4, §2

CaCo-2 cells = assay: Apoptosis, Annexin V-FITC/7-AAD flow cytometry, CaCo-2; format: cell-based, human; settings: CaCo-2, IC50 concentration, 72 h
Procedure: (§5) To establish in vitro, the anti-proliferative mechanism of activity, the influence of bis(2-aminoethyl)amine derivatives on early and late apoptosis was performed, using flow cytometry analysis (Figure 7).
as §2
(§6) Figure 7 The effect of derivatives 3–6 on early and late apoptosis, or necrosis in HaCaT, CaCo-2, A549, and HTB-140 cells. Cells were incubated for 72 h with tested compounds and used in their IC50 concentrations. Then cells were harvested, stained with Annexin V-FITC and 7-AAD, and analyzed using flow cytometry. Data are expressed as the percentage of cells at an early stage of apoptosis or late stage of apoptosis or necrosis. Data are given as means ± SD, *** p ≤ 0.001, ** p ≤ 0.01, as compared to the control.

A549 cells = assay: Apoptosis, Annexin V-FITC/7-AAD flow cytometry, A549; format: cell-based, human; settings: A549, IC50 concentration, 72 h
Procedure: as §5, §2, §6
Figure 8 The effect of compounds 3–6 on early and late apoptosis or necrosis in A549 cells, detected with Annexin V-FITC/7-AAD by flow cytometry. […] The upper right and upper left quadrants represent the late stage of apoptotic or necrotic cells (Annexin V-FITC positive, 7-AAD positive, Annexin V-FITC negative and 7-AAD positive staining, respectively). The lower left quadrant represents unstained A549 cells (Annexin V-FITC negative, 7-AAD negative). TEXT PRINTED IN THE PICTURE: 3: 0,1; 26,6; 36,9; 36,5 | 4: 0,1; 23,4; 47,2; 29,3 | 5: 0,2; 42,5; 28,4; 28,9 | 6: 0,2; 37,6; 19,5; 42,7 DOUBTS OF THE COPYIST ABOUT THIS PICTURE: 3, lower left quadrant value: 36,9, printed over the dot cloud, so the digits 6 and 9 are not fully certain / 6, lower left quadrant value: 19,5, partly printed over the dot cloud, so the digits 9 and 5 are not fully certain / The quadrant numbers are printed with no measure or unit. They are listed in the order upper left, upper right, lower left, lower right / The Control plot (0,1; 5,2; 87,4; 7,3) was left out because it is not a substance

[4] = tested on: HaCaT cells (immortal keratinocytes); assay: MTT cytotoxicity assay, HaCaT normal cells; format: cell-based, human; settings: mean ± SD
Source text: as §4, §2

[5] = tested on: interleukin-6 (IL-6) secretion, HTB-140 cells; assay: Interleukin-6 assay (ELISA), HTB-140; format: cell-based, human; settings: HTB-140, IC50 dose
Source text: (§7) The mechanism of cytotoxic action of bis(2-aminoethyl)-amine derivatives can be associated with reducing interleukin-6 (IL-6) levels, which include the strong pro-inflammatory particles.
as §2
(§8) Figure 9 Effects of compounds 3–6 on IL-6 levels, measured by the ELISA test. Data are expressed as the mean ± SD from three independent experiments, performed in triplicate. *** p ≤ 0.001, ** p ≤ 0.01, * p ≤ 0.05, as compared to the control.

[6] = tested on: HaCaT, HTB-140, CaCo-2, A549 cells; assay: Lactate dehydrogenase (LDH) release assay, statements over several cell lines; format: cell-based, human; settings: pathological cell lines (HTB-140, CaCo-2, A549), 50 µM, 72 h
Procedure: as §1, §2, §3

[7] = tested on: panel of human cancer cell lines (CaCo-2, A549, HTB-140) and normal HaCaT cells; assay: MTT cytotoxicity assay, statements over the whole cell panel; format: cell-based; settings: for IC50: Homo sapiens, all cancer cell lines (CaCo-2, A549, HTB-140), read-out: IC50, range over cancer cell lines; for antiproliferative / cytotoxic activity in words: chosen cancer and normal cell lines
Source text: as §4, §2

HTB-140 cells (melanoma) = assay: MTT cytotoxicity assay, HTB-140; format: cell-based, human; settings: for IC50: HTB-140, MTT, mean ± SD; for SI (Selectivity Index): IC50 for normal cell line (HaCaT)/IC50 HTB-140
Source text: as §4, §2

[8] = tested on: interleukin-6 (IL-6) release, A549 cells; assay: Interleukin-6 assay (ELISA), A549; format: cell-based, human; settings: A549, IC50 dose
Source text: as §7, §2, §8

HTB-140 cells = assay: Apoptosis, Annexin V-FITC/7-AAD flow cytometry, HTB-140; format: cell-based, human; settings: HTB-140, IC50 concentration, 72 h
Procedure: as §5, §2, §6

Structure (SMILES)	IC50 [2] [µM]	SI (Selectivity Index) [2]	IC50 ([3]; Homo sapiens) [µM]	SI (Selectivity Index) [3]	late apoptosis (A549 cells) [%]	IC50 ([4]; Homo sapiens) [µM]	IC50 (HTB-140 cells (melanoma); Homo sapiens) [µM]	SI (Selectivity Index) (HTB-140 cells (melanoma))	antiproliferative / cytotoxic activity in words [7]	other results
S=C(NCCc1ccccc1)NCCN(CCNC(=S)NCCc1ccccc1)C(=S)NCCc1ccccc1 [Compound 6, 3-phenethyl-1,1-bis[2-(3-phenethylthioureido)ethyl]thiourea]	15.7 ± 1.7	1.02	15 ± 1.7	1.08	37.8	16.1 ± 5.7	14 ± 2.5	1.16	–	LDH release ([1]; 50 µM): 8.3%; LDH release ([1]; 100 µM): 17.9%; early apoptosis (CaCo-2 cells): 55.7%; inhibition of IL-6 secretion, in words [5]: two-fold; LDH secretion [6]: 8.09–10.4%; IC50 [7]: 14 to 15.7 µM
S=C(NCCN(CCNC(=S)Nc1ccc(Cl)cc1)C(=S)Nc1ccc(Cl)cc1)Nc1ccc(Cl)cc1 [Compound 3, 3-(4-chlorophenyl)-1,1-bis{2-[3-(4-chlorophenyl)thioureido]ethyl}thiourea]	27.7 ± 3.7	1.08	25 ± 2.4	1.19	23.5	29.9 ± 1.8	22.6 ± 2	1.32	–	LDH release ([1]; 100 µM): 13.8%; decrease of the IL-6 concentration ([8]; versus control): 1.7 times; IC50 [7]: 22.6 to 27.7 µM
COc1cccc2c1C(=O)c1c(O)c3c(c(O)c1C2=O)C[C@@](O)(C(=O)CO)C[C@@H]3O[C@H]1C[C@H](N)[C@H](O)[C@H](C)O1 [Doxorubicin, reference compound]	0.53 ± 0.23	2.06	0.63 ± 0.21	1.73	–	1.09 ± 0.23	0.47 ± 0.18	2.32	–	–
Fc1ccc(NC(=S)NCCN(CCNC(=S)Nc2ccc(F)c(Cl)c2)C(=S)Nc2ccc(F)c(Cl)c2)cc1Cl [Compound 5, 3-(3-chloro-4-fluorophenyl)-1,1-bis{2-[3-(3-chloro-4-fluorophenyl)thioureido]ethyl}thiourea]	17.9 ± 2.8	1.05	15.4 ± 2.1	1.21	42.7	18.8 ± 4.3	14.8 ± 3.2	1.27	–	late apoptosis (CaCo-2 cells): 32.8%
N.N.[Cl][Pt][Cl] [Cisplatin, reference compound]	–	–	–	–	–	–	–	–	–	IC50 [3]: 1.95 ± 0.83 µM; IC50 [4]: 2.84 ± 1.06 µM; IC50 (HTB-140 cells (melanoma)): 1.13 ± 0.19 µM
S=C(NCCN(CCNC(=S)Nc1ccc(Br)cc1)C(=S)Nc1ccc(Br)cc1)Nc1ccc(Br)cc1 [Compound 4, 3-(4-bromophenyl)-1,1-bis{2-[3-(4-bromophenyl)thioureido]ethyl}thiourea]	17.2 ± 1.9	1.12	16.8 ± 1.9	1.15	26.7	19.3 ± 3.5	14.7 ± 1.5	1.35	–	inhibition of interleukin release as compared to the control, in words [8]: tenfold; early apoptosis (HTB-140 cells): 28.6%
COc1ccc(NC(=S)NCCN(CCNC(=S)Nc2ccc(OC)cc2)C(=S)Nc2ccc(OC)cc2)cc1 [Compound 1, 3-(4-methoxyphenyl)-1,1-bis{2-[3-(4-methoxyphenyl)-thioureido]ethyl}thiourea]	> 100	–	> 100	–	–	> 100	> 100	–	biologically inactive	–
COc1ccc(NC(=S)N(CCNc2nnnn2-c2ccc(OC)cc2)CCNc2nnnn2-c2ccc(OC)cc2)cc1 [Compound 7, 3-(4-methoxyphenyl)-1,1-bis(2-{[1-(4-methoxyphenyl)-1H-tetrazol-5-yl]amino}ethyl)thiourea]	> 100	–	> 100	–	–	> 100	> 100	–	biologically inactive	–
S=C(NCCN(CCNC(=S)Nc1ccccc1)C(=S)Nc1ccccc1)Nc1ccccc1 [Compound 2, 3-phenyl-1,1-bis[2-(3-phenylthioureido)ethyl]thiourea]	> 100	–	> 100	–	–	> 100	> 100	–	biologically inactive	–

Reference: PMC7355942, “Cytotoxicity Evaluation of Novel bis(2-aminoethyl)amine Derivatives” (Molecules, 2020)
